# Earlier results in US20090202672A1, “AQUACULTURE FEED, PRODUCTS, AND METHODS COMPRISING BENEFICIAL FATTY ACIDS” (Monsanto Company, priority 2008, published 2009).
# Assays:
# [1] = tested on: cell line from turbot, Scopthalmus maximus; settings: Ghioni et al 1999
# [2] = tested on: established cell line from Atlantic salmon, Salmo salar; settings: Ghioni et al 2004
smiles,measurement,setting,value
"CC/C=C\C/C=C\C/C=C\C/C=C\CCCCC(=O)O [SDA, stearidonic acid]",Conversion of SDA to EPA,[1],limited conversion of SDA to EPA
same,Bioconversion of SDA to EPA and DHA,[2],"bioconversion of SDA to EPA, but not DHA"
